Active and inactive are the calls of the source.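 The calls were made as follows: active = compounds giving half or more protection of infected cells from virus-caused growth loss, again on retest; inactive = the rest.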 Where a SMILES comes first, the peptide text is derived from it. The star is where a group is joined. X11 = Clc1c(Cl)c(Cl)c(O*)c(Cl)c1Cl; Boc = CC(C)(C)OC(=O)*; OBn = c1ccc(CO*)cc1; Bn = c1ccc(C*)cc1
Tested on: CEM cells HIV-1 protection, formazan growth assay
Assay: NCI AIDS Antiviral Assay
Conditions: for IC50: measured here: growth of uninfected CEM cells
Outline: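 Soluble formazan readout of cell growth; CEM cells ± HIV-1; 5 drug concs. ≥50% protection → retest; ≥50% again = moderately active; reproducible 100% = confirmed active.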

Compound	EC50 [µM]	IC50 [µM]	outcome
O=C1OC(C2(O)OC(=O)c3ccccc32)c2ccccc21 (configuration not stated)	> 200	> 200	–
COC(=O)C(CCC1(C)OCCO1)=[N+]=[N-]	> 251	> 251	–
CCOC(=O)CC1=N/C(=N/C(=N)N[N+](=O)[O-])SC1	–	–	inactive
C1=C(c2ccccc2)N2CCCNC2(c2ccccc2)CS1 (configuration not stated)	> 200	132	–
C=C1C(OC(=O)CC(c2ccccc2)N(C)C)C[C@H](OC(C)=O)[C@]2(C)C1C(O)[C@@H]1CC(OC(C)=O)C(C)=C([C@@H](OC(C)=O)C2OC(C)=O)C1(C)C (some centres not stated)	–	–	inactive
CN1c2ccccc2N(C)P1(=S)c1ccccc1	> 200	26.9	–
Cc1[nH]c2ccccc2c1C1Cc2ccccc2N1C(=O)/C=C/C(=O)O (configuration not stated)	> 724	132	–
OC[C@@H](O)[C@@H](O)c1cnn(-c2ccccc2)n1	> 200	> 200	–
CCOc1ccccc1NC(=O)CC(C(=O)OC)C(=O)C(=O)OC (configuration not stated)	> 537	> 537	–
N#CCCC1(CCC#N)CCCCCCCCC(CCC#N)(CCC#N)C(O)C1O (configuration not stated)	> 200	> 200	–
CCOc1ccc(NC(=S)NC=C(C(N)=O)C(N)=O)cc1	> 200	> 200	–
C[C@H]1C(=O)c2c(cc(O)c(C3OC(CO)C(O)C(O)C3O)c2O)OC1c1ccc(O)c(O)c1 (some centres not stated)	–	–	inactive
COc1ccc(N2C(=O)C3c4[nH]c5ccc(OCc6ccccc6)cc5c4C4CCC(c5ccccc5)CC4C3C2=O)cc1 (configuration not stated)	> 100	> 100	–
CC(C)(C)OC(=O)[N+](=N)C(=O)C1CCC(=O)N1C(=O)OCc1ccccc1 (configuration not stated)	> 200	> 200	–
Cc1nc(N)c2c(n1)C(C)N(C(=O)c1ccccc1)C2 (configuration not stated)	> 135	> 135	–
O=C1CS(=O)(=O)C(c2ccccc2F)N1N1C(=O)CS(=O)(=O)C1c1ccccc1F (configuration not stated)	> 151	> 151	–
CC(O)(P(=O)(O)O)P(=O)(O)O.[NH-]CC[NH-].[NH-]CC[NH-].[Pd+2].[Pd+2]	> 200	87.1	–
O=c1c2ncn(C3CCCO3)c2n(-c2ccccc2)c(=S)n1-c1ccccc1 (configuration not stated)	> 200	> 200	–
COc1ccccc1NC(=O)C(=O)C(c1cnc2ccc([N+](=O)[O-])cc2n1)[N+](=O)[O-] (configuration not stated)	> 316	89.1	–
Cc1ccc(S(=O)(=O)N/N=C(\c2nc3ccc([N+](=O)[O-])cc3[nH]c2=O)C(O)c2ccccc2Cl)cc1 (configuration not stated)	–	–	inactive
COc1ccc(C(CC(=O)c2ccccc2)C(=O)c2ccc3c(c2)OCO3)cc1 (configuration not stated)	> 200	> 200	–
OC(C/C(=N\N1CCCCC1)c1cccs1)(C(F)(F)F)C(F)(F)F	> 200	145	–
CC(=O)N1N=C(c2c(O)ccc3ccccc23)CC1c1ccc(Cl)cc1 (configuration not stated)	> 200	25.1	–
CCCCCC1OC1C/C=C\CCCCCCCC(=O)OCC(O)COC(=O)CCCCCCC/C=C\CC1OC1CCCCC (configuration not stated)	> 200	> 200	–
CC(=O)N1CCSC(C(=O)Nc2ccccc2)=C1C	> 646	> 646	–
O=C1c2cccc3cccc(c23)C(=O)N1CCNCCN1C(=O)c2cccc3cccc(c23)C1=O	> 29.5	10.5	–
CCOC(C)C(=O)OC[C@@H](C(=O)OC1C[C@@H]2[C@@H]3O[C@@H]3[C@H](C1)[N+]2(C)C)c1ccccc1 (some centres not stated)	> 200	> 200	–

Compound	EC50 [µM]	IC50 [µM]	outcome
CC(C)CC(NC(=O)C(CCC(=O)OCc1ccccc1)NC(=O)OC(C)(C)C)C(=O)NC(COCc1ccccc1)C(=O)NC(Cc1ccccc1)C(=O)Oc1c(Cl)c(Cl)c(Cl)c(Cl)c1Cl (configuration not stated) (Boc-E(OBn)LS(Bn)F-X11; configuration not given here)	> 200	38.9	–
Cc1c(-c2ccccc2)c(=O)oc2c3c(ccc12)OC(C)(C)[C@H](OC(=O)C12CCC(C)(C(=O)O1)C2(C)C)[C@@H]3OC(=O)C12CCC(C)(C(=O)O1)C2(C)C (some centres not stated)	> 100	> 100	–
C=Cc1ccccn1	> 200	> 200	–
CCO/C(O)=c1/s/c(=C(\C#N)c2nc3ccccc3[nH]2)n(-c2ccccc2)c1=N	> 17.8	15.1	–
O=C(OCCN1CCCCCC1)C(c1ccsc1)C1CCCCC1 (configuration not stated)	> 200	35.5	–
N#Cc1c(-c2ccccc2)cn(C(=O)c2ccccc2)c1N	> 200	191	–
C[C@]12CC[C@H](OC(=O)Cc3ccc(N(CCCl)CCCl)cc3)CC1CC[C@@H]1C2CC[C@]2(C)NC(=O)CCC12 (some centres not stated)	> 17.8	2.95	–
O=S1(=O)c2ccccc2NC(c2ccc3ccccc3c2)CC1c1ccccc1F (configuration not stated)	> 6.46	> 6.46	–
O=C1CCCC/C1=C1\C(=O)Nc2cc(F)ccc21	> 1020	107	–
CC#CC(O)(C(=O)OC1CCCN(C)C1)C1=CC=CCC1 (configuration not stated)	> 200	> 200	–
CCCCN(CCCC)CC(N=O)c1cc(-c2ccc(Cl)c(Cl)c2)nc2c(Cl)cc(Cl)cc12 (configuration not stated)	–	–	inactive
COc1cccc2c1C(=O)c1c(O)c3c(c(O)c1C2=O)C[C@@](O)(C(=O)CO)C[C@@H]3OC1CC(N)C(OC)C(C)O1 (some centres not stated)	> 0.2	0.0195	–
NNC1=Nc2ccc(Cl)cc2C(=S)N2CSCC12 (configuration not stated)	> 200	> 200	–
CCCCCCCCCCOC1C(C(O)CNCCCN(C)C)OC2OC3(CCCCC3)OC21 (configuration not stated)	> 200	1.02	–
COC(=O)C(Cc1c[nH]c2ccccc12)NC(=O)C(Cc1c[nH]c2ccccc12)NC(=O)C(Cc1c[nH]c2ccccc12)NC(=O)C(Cc1c[nH]c2ccccc12)NC(=O)OC(C)(C)C (configuration not stated) (Boc-WWWW-OMe; configuration not given here)	> 100	13.8	–
CCCCCCCCCCCCCCCCCCNc1nc(=O)n(C2CC(O)C(COP(=O)(O)OCC3CCC(n4ccc(N)nc4=O)O3)O2)cc1F (configuration not stated)	1.51	2.04	–
O=c1c2cc([N+](=O)[O-])ccc2n2n1Cc1ccccc1C2	> 200	> 200	–
CCN(CC)c1ccc2cc(-c3nc4ccccc4[nH]3)c(=O)oc2c1	> 7.76	> 7.76	–
CCSC1=N/C(=C\c2ccccc2O)C(Nc2ccc(C)cc2)=N1	> 100	> 100	–
CC1(C)CC(=O)C2=C(C1)C(c1ccccc1Cl)C1C(=O)CC(C)(C)CC1(O)O2 (configuration not stated)	> 200	28.8	–
CCOP(=O)(OCC)C(C)(CC)N/C(=N/C(NC(C)=O)(C(F)(F)F)C(F)(F)F)NC1=NC(C(F)(F)F)(C(F)(F)F)N=C(C(F)(F)F)O1 (configuration not stated)	> 200	14.5	–
C=CCNC(=S)OCCCCCCCCCC	–	–	inactive
Cc1cc(=O)oc2cc(O)cc(OCc3ccccc3)c12	> 107	41.7	–
CCOC(=O)/C=C/c1ccc2c(c1)OC(c1ccc(O)c(OC)c1)C(CO)O2 (configuration not stated)	> 129	24.5	–
COC(=O)c1nc(N)nc(C(=O)OC)c1C(=O)c1ccccc1	> 60.3	> 60.3	–
O=C(Sc1nnnn1-c1ccccc1)Sc1nnnn1-c1ccccc1	97.7	178	–
O=C(NC1C2CC3CC(C2)CC1C3)/C(Cl)=C1/Sc2ccccc2NC1=O (configuration not stated)	> 5.13	> 5.13	–

Compound	EC50 [µM]	IC50 [µM]	outcome
COC(=O)c1ccc(CSc2ccccc2C(=O)OC)cc1	> 22.9	19.1	–
N#Cc1c(=O)c2cc([N+](=O)[O-])ccc2n2c1[nH]c1ccccc12	> 200	3.55	–
O=C1c2c(O)ccc(O)c2C(=O)c2c(NCCCCO)ccc(NCCCCO)c21	15.8	17.4	–
Cc1cc(OCc2nnc3n2S(=O)(=O)c2ccccc2N3C)ccc1Cl	> 200	> 200	–
CCOC(=O)C(C(=O)OCC)=C1N[C@H](C(=O)OCC)CS1	> 295	> 295	–
CCOC(=O)c1c(/C=N\Nc2ccccc2)nc2ccccc2c1-c1ccccc1	> 64.6	26.3	–
O=C(O)/C=C/c1ccc([N+](=O)[O-])cc1	> 97.7	> 97.7	–
CC(CCc1ccccc1)NCC(O)n1c(/N=N/N(C)C)nc2c1c(=O)n(C)c(=O)n2C (configuration not stated)	> 200	> 200	–
CCOC(=O)c1ccc(-n2cnc(-c3ccc([N+](=O)[O-])cc3)c2)cc1	95.5	> 200	–
c1ccc(SC(CNCCc2ccco2)c2ccc3c(c2)OCO3)cc1 (configuration not stated)	> 200	26.9	–
Nc1nc[n+](Cc2ccccc2)c2ncn(Cc3ccccc3)c12	> 631	95.5	–
COC1=CC(=O)C=C(CO)C1=O	> 562	10	–
Nc1nc(N)c2nc(-c3ccco3)cnc2n1	–	–	inactive
CSCCC(N)CO (configuration not stated)	> 200	> 200	–
Cc1nc(Nc2ccccc2Cl)sc1C(=O)CC(=O)C(=O)Nc1c(Cl)cccc1Cl	> 200	57.5	–
CN(NC(=O)/C(=C/c1c(O)ccc2ccccc12)NC(=O)c1ccccc1)c1cn[nH]c(=O)c1Cl	> 200	> 200	–
Nc1nc(Cl)cc(NCCC2(CO)CCC2)n1	> 200	> 200	–
CO/C(=N\N=C\c1ccccc1F)c1ccncc1	> 141	> 141	–
C[C@H](O)C(=O)SC[C@H](NC(=O)CC[C@@H](N)C(=O)O)C(=O)NCC(=O)O	> 200	> 200	–
Cc1cnc(SCCN(C)C)nc1-c1ccc(-c2nc(SCCN(C)C)ncc2C)s1	> 13.5	12.6	–
NS(=O)(=O)c1ccc(Nc2c3ccccc3nc3ncccc23)cc1	> 200	> 200	–
c1ccc(C2=NOC(c3ccccc3)N2C23CC4CC(CC(C4)C2)C3)cc1 (configuration not stated)	> 200	> 200	–
CCCCOC(=O)C1CN2C(=NC1(C(F)(F)F)C(F)(F)F)Sc1ccccc12 (configuration not stated)	–	–	inactive
COc1ccc2c(c1)OC(C)(C)C1c3cc(O)c(OCc4ccccc4)cc3OC21 (configuration not stated)	> 200	16.6	–
Cc1ccc(S(=O)(=O)/C(C#N)=C/n2ccc(=O)[nH]c2=S)cc1	> 200	> 200	–
Cc1ccc(C)c(NC(=O)CC2C(=O)Nc3ccccc3S2(=O)=O)c1 (configuration not stated)	> 4.07	> 4.07	–
